Calls of active or inactive are those of the source.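 Rule for the calls: active = AC50 no more than tenfold above the top dose tested, or full inhibition at every dose with a flat fit (cut at about 19 µM in these data); inconclusive = flat curve fit with inhibition between 30% and 70%, or poor fit; inactive = AC50 more than tenfold above the top dose tested.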

This assay deals with HMLE_sh_eGFP viability, CellTiter-Glo luminescence, 72 h. Nature of the assay: cytotoxicity in HMLE control line with eGFP shRNA, dose response, counter-screen for HMLE_sh_ECad selective toxicity project, cell-based, HMLE_sh_eGFP, luminescence (AID 463074).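 Note: potency for loss of viability as luminescence drops below DMSO wells.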 In general terms: Counterscreens check selectivity or assay interference.
A word on the AC50: it is the concentration at which the activity in the assay is half-maximal. As for `Cc1cccc(C(=O)N/N=C/c2ccc(OC3CSC3)cc2)c1`, the AC50 is 2.73 µM.
For `O=c1c2ccccc2nc2n1C1(CCCCC1)Cc1ccccc1-2`, the AC50 was 4.03 µM.
As for `Cc1cccc(CN2C(=O)/C(=C\c3ccc(C(=O)NCCCN4CCN(C)CC4)cc3)Oc3ccccc32)c1`, the figure is 3.62 µM.
As for `Cc1ccnc2c1ccc1c(C)ccnc12`, the figure is 0.937 µM.
Consider `O=C(Oc1ccc(Br)cc1C(=O)/C=C/c1ccccc1F)c1ccco1`, for which the AC50 is 4.19 µM.
As for `Cc1cccc(NS(=O)(=O)c2ccc(C3CCCCC3)cc2)c1`, the figure is 5.18 µM; as for `O=[N+]([O-])/C=C/c1cn(Cc2ccc(Cl)cc2)c2ccccc12`, 2.2 µM.
On to `Cc1ccccc1N=C(NOCc1ccc(Cl)cc1Cl)c1nonc1N`, for which the AC50 is 3.81 µM.
For `Cc1nc(N2CCCCC2)c2c(C)c(C(=O)Nc3ccccc3C(F)(F)F)sc2n1`, the AC50 was 1.85 µM.
As for `Cc1ccsc1/C=N/NC(=O)c1cc(-c2ccncc2)nc2ccccc12`, the figure is 0.257 µM.
As for `Cc1ccc(N2NC(=O)/C(=C\c3cc4c(cc3[N+](=O)[O-])OCO4)C2=O)cc1C`, the figure is 4.44 µM; as for `O=C(Nc1nccs1)c1ccc(COc2ccccc2Cl)o1`, 10.8 µM.
As for `Cc1csc(N/N=C/c2ccccn2)n1`, the figure is 11 µM; as for `COc1cccc(C(=O)/C=C/c2ccc(N3CCCCC3)c([N+](=O)[O-])c2)c1`, 6.69 µM.
Consider `COc1ccccc1Nc1ccc(NC(=O)c2cccc([N+](=O)[O-])c2C)cc1`, for which the AC50 is 3.82 µM.
As for `Cc1ccc(C=Nc2ccccc2C(N)=O)s1`, the figure is 2.79 µM.
As for `O=C1CC(c2cc(Br)ccc2F)c2cc3c(cc2N1)CCC3` (configuration not stated), the AC50 is 0.196 µM.
As for `S=C(Nc1cccc(Cl)c1)N(CCCN1CCCC1)Cc1cccn1Cc1ccc(Cl)cc1`, the figure is 6.86 µM; as for `CC(C)Cn1c(O)c(/C=C2\C=NN=C2c2ccccc2)sc1=S`, 3.54 µM.
As for `C=C[C@@H]1c2cc(C)ccc2N(S(=O)(=O)c2ccc(C)cc2)[C@H](c2ccc(OC(C)=O)cc2)C1(C#N)C#N`, the figure is 1.3 µM; as for `c1ccc(N(c2ccccc2)c2nc(N3CCCC3)nc(-n3ccnc3)n2)cc1`, 6.28 µM; as for `CCOC(=O)c1c(NC(C)=O)sc2c1CCC(C=O)=C2Sc1ccccc1`, 3.63 µM.
As for `Cc1ccc(C(=O)Nc2nc(C)c(C(=O)Nc3ccc4c(c3)CCC4)s2)cc1`, the figure is 18.8 µM; as for `COC(=O)C1=C(C)N(Cc2ccccc2)C(=NCCc2c[nH]c3ccccc23)N[C@H]1c1cccc(F)c1`, 7.06 µM.
On to `CCCCCCCCCCS(=O)(=O)N/N=C/c1ccc([N+](=O)[O-])cc1`, for which the AC50 is 12.9 µM.
`O=[N+]([O-])c1cc(-c2cnc3ccccc3n2)ccc1Oc1ccc(Cl)cc1`: the AC50 was 3.38 µM.
With `CN(C)CCNc1nc2sc3c(c2c(=O)n1-c1ccccc1)CCCCC3`, the AC50 is 3.22 µM.
For `O=[N+]([O-])c1cc(S(=O)(=O)N2CCCCCC2)ccc1F`, the AC50 is 3.66 µM.
`COC(=O)c1ccc(/C=C/c2c(-c3ccsc3)oc3ccc(N4CCOCC4)cc23)cc1`: the AC50 was 6.37 µM.
Take `COC(=O)c1sc(-c2ccc(C(C)(C)C)cc2)cc1NC(=O)/C=C/C(=O)O`: the AC50 was 4.28 µM.
`CC(C)(C)c1ccc(NC(=O)N2CCCN(c3c(Cl)cncc3Cl)CC2)cc1`: the AC50 was 2.85 µM.
In the case of `CCCCCCSc1cc(-c2nc3cnccn3c2NCCCC)ccc1OC`, the AC50 is 6.71 µM.
As for `COc1ccc(-c2sc3ccccc3c2-c2ccc(OCCN(C)C)cc2)cc1`, the figure is 3.38 µM; as for `COc1ccccc1C(CCNCc1ccc(N(C)C)cc1)c1ccc(OC(C)C)cc1` (configuration not stated), 3.58 µM; as for `CC1CCCCC1NC(=O)/C(C#N)=C/c1ccccc1F` (configuration not stated), 7.72 µM.
As to `N#CC1=C(SCC(=O)c2ccc(Cl)cc2)NC2=C(C(=O)CCC2)C1c1ccco1` (configuration not stated), the AC50 was 3.57 µM.
As for `COc1ccccc1/C=C1\SC(=S)N(CCC(=O)NCCCn2ccnc2)C1=O`, the figure is 18.6 µM; as for `Cc1nc(NCc2ccco2)c2c(C)c(C)sc2n1`, 5.22 µM.
On to `CCC(C)c1ccc(NC(=O)C2CC3CCC2C3)cc1` (configuration not stated), for which the AC50 is 4.98 µM.
As to `C#CCOCCOCCOCCNc1nc(N2CCN(C(=O)CCCCCCCCCCNC(=O)Cn3cc(C[C@@H](C)O)nn3)CC2)nc(N2CCN(C(=O)CCCCCCCCCCNC(=O)[C@@H]([C@H](C)O)n3cc(C)nn3)CC2)n1`, the AC50 is 4.83 µM.
As for `CCOC(=O)C1CCN(c2ncnc3c2c(-c2ccccc2)cn3-c2ccccc2)CC1`, the figure is 7.43 µM; as for `O=C(/C=C/Sc1ccccc1)c1ccc(Cl)cc1`, 4.56 µM.
As to `O=C(Nc1cccc(Cl)c1)Nc1sccc1-c1nc2ccccc2s1`, the AC50 is > 19.5 µM (inactive).
As for `CC(C)CC(=O)NC(NC(=S)Nc1sc2c(c1C#N)CCCC2)C(Cl)(Cl)Cl` (configuration not stated), the figure is 10.6 µM; as for `CCCCCc1cc(=O)oc2c(C(CCN3CCCC(C)C3)c3ccc4c(c3)OCO4)c(OC)cc(OC)c12` (configuration not stated), 6.78 µM.
Consider `COc1ccc(CCNc2ccc(C(CC(N)=O)NC(=O)c3ccc(Br)cc3)cc2[N+](=O)[O-])cc1` (configuration not stated), for which the AC50 is 11.7 µM.
With `Cc1[nH]nc2nc(SCC(=O)NC3CCCCC3)n(-c3ccc(Br)cc3)c(=N)c12`, the AC50 was 14.4 µM.
As for `COc1ccc(OC)c(NC(=O)c2nc(S(=O)(=O)Cc3ccccc3)ncc2Cl)c1`, the figure is 6.74 µM; as for `O=C(NCc1nc(-c2ccc(C(F)(F)F)cc2)no1)Nc1ccc(OC(F)(F)F)cc1`, 3.12 µM; as for `CCC(C)n1c(O)c(/C=N/Nc2ccccc2)c(=O)[nH]c1=S` (configuration not stated), 3.58 µM.
As for `Cc1ccc(-c2cc(C(=O)N/N=C/c3ccccc3O)n[nH]2)o1`, the figure is 10.2 µM; as for `CCCCCCc1cc2cc(S(=O)(=O)c3ccc(C)cc3)c(=O)oc2cc1O`, 2.43 µM.
`C/C(=N\Nc1ccccc1)c1c(O)[nH]c(=O)[nH]c1=O`: the AC50 is 2.25 µM.
As for `N#CC1=C(N)N2C(=C(C#N)C1c1ccc(Br)cc1)Nc1ccccc12` (configuration not stated), the figure is 2.99 µM.
As for `Cc1nn(-c2ccccc2)c(C)c1/C=N/n1c(-c2ccc(C(C)(C)C)cc2)n[nH]c1=S`, the AC50 was 6.74 µM.
As for `COc1ccc(C)cc1N1C(=N)/C(=C2/Nc3ccccc3S2)C(c2ccccc2)C1=O` (configuration not stated), the figure is 17.8 µM.
As for `COc1cccc(/C=N/NC(=O)CSc2nnc(C)n2-c2ccccc2)c1O`, the figure is 5.01 µM; as for `NCCNc1ccc(C(=O)N2c3ccccc3Sc3ccccc32)cc1[N+](=O)[O-]`, 8.03 µM; as for `Nc1nc(Nc2ccccc2)nc(NC2CCCCC2)c1[N+](=O)[O-]`, 6.81 µM.
Turning to `Cc1cc(NC(=O)/C=C/c2ccc(Cl)cc2)no1`, the AC50 is > 19.5 µM (inactive).
As for `C=C(C)Cn1c(SCC(=O)N/N=C/c2c(O)ccc3ccccc23)nc2ccccc2c1=O`, the AC50 was 5.62 µM.
Consider `CCCCC1CCC(C(=O)N(CC(C)C)c2c(N)n(Cc3ccccc3)c(=O)[nH]c2=O)CC1` (configuration not stated), for which the AC50 was 4.62 µM.
As for `COC(=O)C1=C(C)N(Cc2ccccc2)C(=NCc2cccc(Cl)c2)N[C@H]1c1cccc(F)c1`, the figure is 3.62 µM; as for `O=C(Nc1ccccc1Cc1ccccc1)c1ccccc1NS(=O)(=O)c1ccc(Cl)s1`, 1.84 µM.
As for `O=C(Nc1nc(-c2cccs2)cs1)c1ccc([N+](=O)[O-])o1`, the figure is 3.18 µM; as for `O=C(NC(NC(=S)Nc1ccccc1)C(Cl)(Cl)Cl)c1cccc(Cl)c1` (configuration not stated), 5.36 µM.
Take `Cc1sc2ncnc(N3CCN(CCOc4ccc(Cl)cc4)CC3)c2c1C`: the AC50 was 7.16 µM.
